{"source": "patent US6569631B1", "about": "“Microplate thermal shift assay for ligand development using 5-(4″dimethylaminophenyl)-2-(4′-phenyl)oxazole derivative fluorescent dyes” (3-Dimensional Pharmaceuticals, Inc., priority 1998, dated 2003)", "key": {"[1]": {"target": "T1, chicken muscle pyruvate kinase (Gallus gallus, UniProt P00548)", "T1 construct": "purchased Sigma Chemical Co. P6406", "T1 sequence (P00548 whole entry)": "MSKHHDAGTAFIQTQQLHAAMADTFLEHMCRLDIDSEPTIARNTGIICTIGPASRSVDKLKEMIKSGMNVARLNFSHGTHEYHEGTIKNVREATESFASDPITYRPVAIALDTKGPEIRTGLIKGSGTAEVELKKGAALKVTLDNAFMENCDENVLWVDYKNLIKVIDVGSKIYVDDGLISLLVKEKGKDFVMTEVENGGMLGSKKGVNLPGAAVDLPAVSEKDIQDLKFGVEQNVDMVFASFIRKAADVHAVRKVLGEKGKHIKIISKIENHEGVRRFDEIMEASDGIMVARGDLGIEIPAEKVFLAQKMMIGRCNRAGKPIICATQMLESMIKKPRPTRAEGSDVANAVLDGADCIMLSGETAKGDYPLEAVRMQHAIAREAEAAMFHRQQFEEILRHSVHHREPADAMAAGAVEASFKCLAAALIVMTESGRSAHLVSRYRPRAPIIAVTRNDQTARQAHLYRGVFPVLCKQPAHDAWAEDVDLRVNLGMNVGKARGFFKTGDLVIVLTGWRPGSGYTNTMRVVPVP", "test": "Fluorescence signal of reporter dyes on thermal unfolding of pyruvate kinase", "settings": "wavelengths above 480 nm; excitation 370 nm", "experimental": "A 0.2 mg/mL solution of chicken muscle pyruvate kinase (Sigma Chemical Co., catalog # P6406) was incubated with either 10 mM 1-anilinonaph-thalene-8-sulfonate (1,8-ANS) (FIG. 44, open squares) or 10 mM 5-(4″-dimethylaminophenyl)-2-(4′-phenyl)oxazole sulfonate (Molecular Probes catalogue no. D-12800) (FIG. 44, closed squares) in a 500 μL four-sided quartz cuvette. Fluorescence spectra were recorded using a spectrofluorimeter (Florolog, SPEX/ISA), with the excitation monochromator set to 370 nm, and the excitation and emission bandpass slit widths set at 1 nm, The instrument was operated in front-face collection mode, so that fluorescence was collected from the same face of the cuvette that was illuminated by the exciting light source. Emission spectra of native protein+dye were recorded after mixing the protein and dye solutions at room temperature. Emission spectra of denatured protein and fluorescence dye were recorded after the protein/dye solutions were heated to 75° C. for 2 minutes, and then cooled to room temperature immediately prior to data collection. The spectra shown in FIG. 44 are difference spectra that were calculated by subtracting the native protein fluorescence from the denatured protein fluorescence for each dye at 25° C. […]"}, "thrombin [2]": {"target": "T2, thrombin (Homo sapiens, UniProt P00734)", "test": "Fluorescence signal of reporter dyes in 384-well thermal unfolding of thrombin", "parameters": "A stock human α-thrombin solution (1.56 mg/mL) from Enzyme Research Labs; purchased Enzyme Research Labs", "settings": "100 μM dye; 1 μM thrombin; 500+/−25 nm bandpass filter", "experimental": "A 1 μM thrombin solution was mixed with 5-(4″-dimethylaminophenyl)-2-(4′-phenyl)oxazole sulfonate dye to yield a final concentration of 100 μM 5-(4″-dimethylaminophenyl)-2-(4′-phenyl)oxazole sulfonate. This solution was pipetted into all the wells of a 384-well black thermocycler plate with a final volume of 4 μL per well, and 3 μL of mineral oil was then added to each well. The fluorescence signal from each well was recorded in a closed, black-walld metal box using a cooled CCD camera (SenSys, Photometrix, Inc.) equipped with a 500+/−25 nm bandpass filter. An identical experiment was performed separately, using the same instrument, camera, and filters, except that a final concentration of 100 μM 1,8-ANS was used in place of 5-(4″-dimethylaminophenyl)-2-(4′-phenyl)oxazole sulfonate as the reporter dye.\nThe ratio of signals from 5-(4″-dimethylaminophenyl)-2-(4′-phenyl)oxazole sulfonate and 1,8-ANS was calculated by averaging the signals of all 384 wells on each plate, and dividing the average signal from 1,8-ANS into that for 5-(4″-dimethylaminophenyl)-2-(4′-phenyl)oxazole sulfonate."}, "D(II) FGFR1": {"target": "T3, D(II) FGFR1 (Homo sapiens, UniProt P11362)", "T3 construct": "made in house", "T3 sequence (P11362 158-246 limits assumed)": "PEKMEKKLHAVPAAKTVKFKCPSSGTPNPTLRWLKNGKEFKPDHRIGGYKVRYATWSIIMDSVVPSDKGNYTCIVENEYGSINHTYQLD", "test": "Miniaturized (10 μL) microplate thermal shift assay of D(II) FGFR1", "format": "binding", "settings": "aprosulate 300 μM", "experimental": "Recombinant D(II) FGFR1 was purified from inclusion bodies and purified by affinity chromatography on heparin sepharose. A stock solution of D(II) FGFR1 (15 mg/mL; 1.1 mM) was diluted to 50 μM in assay buffer (50 mM Hepes, pH 7.5, 0.1 M NaCl). The assay volume was 10 μL and the concentration of 1,8-ANS was 250 μM."}, "[3]": {"test_system": "human urokinase-type plasminogen activator (u-PA)", "test": "Miniaturized microplate thermal shift assay of urokinase", "format": "binding", "settings": "5 μL; MOPS pH 7, NaCl, 1,8-ANS", "description": "Another target molecule analyzed was human urokinase-type plasminogen activator (u-PA). U-PA enzymatically converts plasminogen into the active protease plasmin. U-PA is involved in tissue remodeling, cellular migration and metastases. The gene for u-PA was obtained from ATCC (Rockville, Md.) and modified to appropriately express active enzyme in E. coli. u-PA was cloned, overexpressed in E. coli, and purified using procedures similar to those described by Winkler et al. (Biochemistry 25:4041-4045 (1986)). […] The experiment was performed in the miniaturized format in 5 μL well volume. One μL of concentrated CMK-u-PA (13 g/L, 371.4 μM) was added to 4 μL of 62.5 mM MOPS, pH 7, 125 mM NaCl, and 250 μM 1,8-ANS, in multiple wells of a 96-well polycarbonate V-bottom microtiter plate. A thermal denaturation curve was generated as previously described for thrombin, aFGF, D(II)FGFR1, Factor D, and Factor Xa, by incremental heating of the microplate followed by a fluorescence reading after each temperature increase."}, "human α-thrombin": {"target": "T4, human α-thrombin (Homo sapiens, UniProt P00734)", "T4 construct": "A stock human α-thrombin solution (1.56 mg/mL) from Enzyme Research Labs; purchased Enzyme Research Labs", "test": "Microplate thermal shift screen of biochemical conditions, thrombin stability", "settings": "NaCl concentration increased from 0 to 0.5 M", "experimental": "The microplate thermal shift assay was used, with four different fluorophores, to simultaneously screen the effects of multiple pH values, sodium chloride concentrations, and reduction-oxidation compounds on human α-thrombin stability. Thrombin solution was diluted to 1 μM in 50 mM Hepes, pH 7.5, NaCl at either 0.1 M or 0.5 M, 10 mM EDTA, 10 mM CaCl2, 10 mM dithiothreitol, […], and 100 μM 1,8-ANS, 10% (v/v) glycerol, or 0.1% (w/v) polyethylene glycol (PEG) 6000. Reaction volume was 100 μL.\nUsing equation (1), it is possible to estimate the NaCl binding to be ˜6 mM near the Tm (53° C.) in 50 mM Hepes pH 8.0 buffer (zero and 0.10 M NaCl)."}, "D(II) FGF receptor 1": {"test_system": "D(II) FGF receptor 1", "test": "Microplate thermal shift screen of biochemical conditions, D(II) FGF receptor 1 stability", "parameters": "species or system human", "settings": "NaCl concentration increased from 0.1 to 0.5 M", "experimental": "The microplate thermal shift assay was used to simultaneously screen the effects of multiple biochemical conditions on D(II) FGF receptor 1 stability. The assays were performed by mixing 1 μL of D(II) FGFR1 (from a 500 μM concentrated stock in 50 mM HEPES pH 7.5) with 4 μL of each biochemical condition in wells of a 96-well polycarbonate microtiter plate. Final protein concentration after mixing was 100 μM and final 1,8-ANS concentration was 200 μM. Biochemical conditions were tested as follows: The pH's tested were 5 (Na acetate), 6 (MES), 7 (MOPS), 8 (HEPES), and 9 (CHES), with final buffer concentrations of 50 mM.\nThe salt concentrations tested were 0.1 or 0.5 M NaCl. Additives were tested in 50 mM MOPS, pH 7, 0.1 M NaCl, at final concentrations of 1 mM (EDTA, dithiothreitol), 10 mM (CaCl2, MgCl2, MgSO4, NiSO4),50 mM (arginine), 100 mM ((NH4)2SO4, LiSO4, Na2SO4, ZnSO4), 5% w/v (polyethylene glycol 6000), and 10% v/v glycerol.\nThermal denaturation profiles were generated as previously described for thrombin, aFGF, Factor D, and Factor Xa, by incremental heating of the microplate followed by a fluorescence reading after each temperature increase. Data were analyzed by non-linear least squares fitting as described previously."}, "thrombin [4]": {"target": "T2, thrombin", "settings": "5 mM Tris buffer pH 8.0, 0.1% PEG, 25° C.; read-out: Kd of the Na+ binding site; cited from earlier work"}, "[5]": {"target": "T5, acidic fibroblast growth factor (aFGF) (Homo sapiens, UniProt P05230)", "T5 construct": "host or cells: E. coli", "T5 sequence (P05230 whole entry, species assumed)": "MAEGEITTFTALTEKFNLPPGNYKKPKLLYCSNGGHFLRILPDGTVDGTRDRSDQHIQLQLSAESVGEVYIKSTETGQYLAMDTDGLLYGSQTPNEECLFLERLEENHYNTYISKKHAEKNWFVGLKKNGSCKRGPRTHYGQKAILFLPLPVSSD", "test": "Microplate thermal shift assay for ligands binding to aFGF, turbidity signal", "settings": "for ΔTm: relative to aFGF alone (317.15 °K); for Tm: turbidity signal, aFGF 0.25 mg/mL, ligand 47-200 μM", "description": "The second therapeutic receptor tested in the microplate thermal shift assay was acidic fibroblast growth factor (aFGF), a growth factor that plays a key role in angiogenesis (Folkman, J. et al., J. Biol. Chem. 267:1.0931-10934 (1992)). A synthetic gene for this protein was purchased from R&D Systems (Minneapolis, Minn.), and was cloned and expressed in E. coli using methods similar to those described for basic fibroblast growth factor (bFGF) (Thompson, L. D. et al., Biochemistry 33:3831-3840 (1994); Pantoliano, M. W. et al., Biochemistry 33:10229-10248 (1994); Springer, B. A. et al., J. Biol. Chem. 269:26879-26884 (1994)). Recombinant aFGF was then purified by heparin-sepharose affinity chromatography as described (Thompson, L. D. et al., Biochemistry 33:3831-3840 (1994)). aFGF is also known to bind heparin/heparan, which is a cofactor for mitogenic activity. […] A microplate thermal assay of these compounds was set up in a way similar to that described above for human α-thrombin. […] The affinity constants covered a fairly broad range of binding affinities, with pentosan PSO4 showing the highest affinity."}, "[6]": {"target": "T6, heparin binding site of human α-thrombin (Homo sapiens, UniProt P00734)", "T6 construct": "A stock human α-thrombin solution (1.56 mg/mL) from Enzyme Research Labs; purchased Enzyme Research Labs", "test": "Microplate thermal shift assay, ligands binding to the heparin binding site, turbidity signal", "description": "Assays for ligands that bind to the heparin binding site of human α-thrombin are more difficult to perform than assays for ligands that bind to the active site of human α-thrombin. At the heparin binding site, no substrate is hydrolyzed, so no spectrophotometric signal can be amplified for instrumental detection. Heparin activity is usually estimated in biological clotting time assays. […] Thus, heparin binding to human α-thrombin represents the kind of challenge encountered with the vast majority of non-enzyme receptor/ligand binding events, which are commonly observed for hormone/receptor interactions, repressor/DNA interactions, neurotransmitter/receptor interactions, etc. Several heparin-like sulfated oligosaccharides and sulfated naphthalene compounds were assayed by the microplate thermal shift assay. Using the thermal shift assay, it was possible to use a single compound per well to quickly rank the compounds in order of increasing binding affinity, with Kd's ranging over three orders of magnitude (see Table 4). Like the experiment in Example 1, the thermal shift assay results agreed closely with the results obtained through an alternative method, which required a series of laborious (15 to 20 single determinations) fluorescence quench assays over a wide range of concentrations of low MW heparin (Olson, S. T. et al., J. Biol. Chem. 266:6342-6352 (1991))."}}, "note": "Like-named read-outs stand apart in the source and are kept apart here. Ends that are not written are not given here."}
{"molecule": "CN(C)c1ccc(-c2cnc(-c3ccc(S(=O)(=O)O)cc3)o2)cc1", "note": "[5-(4″-dimethylaminophenyl)-2-(4′-phenyl)oxazole sulfonate]", "values": [{"measurement": "fluorescence signal relative to 1,8-ANS on unfolding of pyruvate kinase", "setting": "[1]", "value": "approximately 3.2 fold"}, {"measurement": "signal relative to 1,8-ANS, average of 384 wells", "setting": "thrombin [2]", "value": 4.25, "unit": "times"}]}
{"molecule": "O=C(NCCCNC(=O)[C@H](OS(=O)(=O)O)[C@@H](OS(=O)(=O)O)[C@H](O[C@@H]1O[C@H](COS(=O)(=O)O)[C@H](OS(=O)(=O)O)[C@H](OS(=O)(=O)O)[C@H]1OS(=O)(=O)O)[C@@H](COS(=O)(=O)O)OS(=O)(=O)O)[C@H](OS(=O)(=O)O)[C@@H](OS(=O)(=O)O)[C@H](O[C@@H]1O[C@H](COS(=O)(=O)O)[C@H](OS(=O)(=O)O)[C@H](OS(=O)(=O)O)[C@H]1OS(=O)(=O)O)[C@@H](COS(=O)(=O)O)OS(=O)(=O)O", "note": "[aprosulate]", "values": [{"measurement": "unfolding transition (Tm) in the presence of ligand", "setting": "D(II) FGFR1", "value": "about 320 K"}, {"measurement": "increase of the unfolding transition", "setting": "D(II) FGFR1; D(II) FGFR1 50 μM, 10 μL", "value": "about 8 K"}]}
{"molecule": "glu-gly-arg-chloromethylketone [CMK]", "values": [{"measurement": "Tm of the CMK-u-PA complex", "setting": "[3]", "value": 81, "unit": "°C"}]}
{"molecule": "[Cl-].[Na+]", "note": "[NaCl, sodium chloride]", "values": [{"measurement": "ΔTm", "setting": "human α-thrombin", "value": "about 12 °C"}, {"measurement": "ΔTm", "setting": "D(II) FGF receptor 1", "value": "about 5 °C"}]}
{"molecule": "[Na+]", "note": "[Na^+]", "values": [{"measurement": "Kd", "setting": "thrombin [4]", "value": "30000 ± 3000", "unit": "µM"}]}
{"molecule": "EEEEEEEE", "values": [{"measurement": "Kd", "setting": "[5]; equation (1), estimated ΔHu 60.0 kcal/mole, ΔCpu 0.95 kcal/mole-°K, read-out: Kd at Tm", "value": 10.1, "unit": "µM"}, {"measurement": "Kd", "setting": "[5]; estimate by equation (3), ΔHL −10.0 kcal/mole, read-out: Kd at 298° K Observed", "value": 3.04, "unit": "µM"}, {"measurement": "ΔTm", "setting": "[5]", "value": 5.0, "unit": "°K"}, {"measurement": "Tm", "setting": "[5]", "value": 322.15, "unit": "°K"}]}
{"molecule": "Cc1ccc(C(=O)Nc2ccc(S(=O)(=O)O)c3cc(S(=O)(=O)O)cc(S(=O)(=O)O)c23)cc1NC(=O)c1cccc(NC(=O)Nc2cccc(C(=O)Nc3cc(C(=O)Nc4ccc(S(=O)(=O)O)c5cc(S(=O)(=O)O)cc(S(=O)(=O)O)c45)ccc3C)c2)c1", "note": "[Suramin, suramin]", "values": [{"measurement": "ΔTm", "setting": "[6]; relative to thrombin alone (329.15 °K)", "value": 11.0, "unit": "°K"}, {"measurement": "affinity at Tm higher than the affinity of heparin 5000", "setting": "[6]; thermal shift assay, Table 4", "value": 5700, "unit": "fold"}, {"measurement": "Tm", "setting": "[6]; turbidity signal, 11 μM thrombin, ligand 40-102 μM", "value": 340.15, "unit": "°K"}, {"measurement": "ΔTm", "setting": "[5]", "value": 13.0, "unit": "°K"}, {"measurement": "Tm", "setting": "[5]", "value": 330.15, "unit": "°K"}]}
